Laboratory results published in ChEMBL document CHEMBL1201862, “PubChem BioAssay data set” (2004).
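The compound was tested at five concentrations on cells cultured in 96-well plates, with a 48-hour exposure period. The concentration for 50% growth inhibition is given as GI50.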 Activity calls are given as the source filed them. Rule as the data show it: active = GI50 up to about 1.1 µM and inactive = higher.

What was measured:
Assay in all cases: inhibition of tumour cell growth, NCI panel, 48 h
HOP-18 = system: HOP-18
DMS-114 = system: DMS-114
RXF 631 = system: RXF 631
DMS-273 = system: DMS-273
SNB-78 = system: SNB-78
DLD-1 = system: DLD-1
XF498 = system: XF498
M19-MEL = system: M19-MEL
Hs-578T = system: Hs-578T

CCCCCCCCCCCCCCCCCC(=O)NCC(COP(=O)([O-])OCC[N+](C)(C)C)OC (configuration not stated)
GI50 (HOP-18): 3.78 µM (inactive)
GI50 (DMS-114): 10.6 µM (inactive)
GI50 (RXF 631): 13.4 µM (inactive)
GI50 (DMS-273): 1.58 µM (inactive)
GI50 (SNB-78): 4.3 µM (inactive)
GI50 (DLD-1): 2.59 µM (inactive)
GI50 (XF498): 2.71 µM (inactive)
GI50 (M19-MEL): 2.43 µM (inactive)

[O-]/[N+](=C\c1ccccc1)[C@H](COCc1ccccc1)c1ccccc1
GI50 (HOP-18): 20.3 µM (inactive)
GI50 (DMS-114): 54.1 µM (inactive)
GI50 (RXF 631): > 100 µM (inactive)
GI50 (DMS-273): 93.8 µM (inactive)
GI50 (SNB-78): 66.5 µM (inactive)
GI50 (DLD-1): > 100 µM (inactive)
GI50 (XF498): 27.8 µM (inactive)
GI50 (M19-MEL): > 100 µM (inactive)

Cc1ccc(Nc2nc(C)c(C(/C=C/c3ccc4c(c3)OCO4)=N/Nc3ccc([N+](=O)[O-])cc3[N+](=O)[O-])s2)c([N+](=O)[O-])c1
GI50 (HOP-18): 7.69 µM (inactive)
GI50 (DMS-114): 13.3 µM (inactive)
GI50 (RXF 631): 42.5 µM (inactive)
GI50 (DMS-273): 25.9 µM (inactive)
GI50 (SNB-78): 50.7 µM (inactive)
GI50 (DLD-1): 27.6 µM (inactive)
GI50 (XF498): 22.1 µM (inactive)
GI50 (M19-MEL): 59.7 µM (inactive)

CCCCCCCCCCCCCCCCCCN(C)CC(COC)OP(=O)([O-])OCC[N+](C)(C)C (configuration not stated)
GI50 (HOP-18): 1.85 µM (inactive)
GI50 (Hs-578T): 4.93 µM (inactive)
GI50 (DMS-114): 2.84 µM (inactive)
GI50 (RXF 631): 5.25 µM (inactive)
GI50 (DMS-273): 0.625 µM (active)
GI50 (SNB-78): 3.56 µM (inactive)
GI50 (DLD-1): 1.47 µM (inactive)
GI50 (XF498): 4.93 µM (inactive)
GI50 (M19-MEL): 2.75 µM (inactive)

CCc1cccc(CC)c1NC(=S)NC(=O)c1ccc(Br)cc1
GI50 (HOP-18): 49.9 µM (inactive)
GI50 (Hs-578T): 3.76 µM (inactive)
GI50 (DMS-114): 28.2 µM (inactive)
GI50 (RXF 631): > 100 µM (inactive)
GI50 (DMS-273): 49 µM (inactive)
GI50 (SNB-78): 64.7 µM (inactive)
GI50 (DLD-1): 34.9 µM (inactive)
GI50 (XF498): 26.3 µM (inactive)
GI50 (M19-MEL): 35.2 µM (inactive)

CCC(=O)OC[n+]1ccc2c(C)c3[nH]c4ccc(OC)cc4c3c(C)c2c1
GI50 (HOP-18): < 0.01 µM (active)
GI50 (DMS-114): 0.104 µM (active)
GI50 (RXF 631): 0.0843 µM (active)
GI50 (SNB-78): 0.693 µM (active)
GI50 (DLD-1): 0.0435 µM (active)
GI50 (XF498): 1.22 µM (inactive)
GI50 (M19-MEL): 0.266 µM (active)

COc1ccc(C(=O)OC2C=COC(C)C2OC(=O)c2ccc(OC)cc2)cc1 (configuration not stated)
GI50 (HOP-18): 27.2 µM (inactive)
GI50 (DMS-114): 17.5 µM (inactive)
GI50 (RXF 631): 26.4 µM (inactive)
GI50 (DMS-273): 23.3 µM (inactive)
GI50 (SNB-78): 22.5 µM (inactive)
GI50 (DLD-1): 16.4 µM (inactive)
GI50 (XF498): > 45 µM (inactive)
GI50 (M19-MEL): 30.7 µM (inactive)

CC(=O)N(C)c1ccc2c(ccc[n+]2[O-])c1[N+](=O)[O-]
GI50 (HOP-18): > 100 µM (inactive)
GI50 (DMS-114): > 100 µM (inactive)
GI50 (RXF 631): > 100 µM (inactive)
GI50 (DMS-273): > 100 µM (inactive)
GI50 (SNB-78): > 100 µM (inactive)
GI50 (DLD-1): > 100 µM (inactive)
GI50 (XF498): > 100 µM (inactive)
GI50 (M19-MEL): > 100 µM (inactive)

CN(C)CCNC(=O)c1cccc2nc3c(Cl)cccc3nc12
GI50 (HOP-18): > 30.7 µM (inactive)
GI50 (DMS-114): 3.57 µM (inactive)
GI50 (RXF 631): 6.92 µM (inactive)
GI50 (DMS-273): 5.09 µM (inactive)
GI50 (DLD-1): 4.43 µM (inactive)
GI50 (XF498): 2.92 µM (inactive)
GI50 (M19-MEL): 2.96 µM (inactive)

COc1c(C=O)c2c(c(OC)c1OC)-c1ccc(OC)c(=O)cc1[C@@H](NC(C)=O)CC2
GI50 (HOP-18): 21.6 µM (inactive)
GI50 (Hs-578T): < 0.01 µM (active)
GI50 (DMS-114): < 0.0146 µM (active)
GI50 (RXF 631): 0.229 µM (active)
GI50 (DMS-273): 0.029 µM (active)
GI50 (SNB-78): < 0.0147 µM (active)
GI50 (DLD-1): 0.0614 µM (active)
GI50 (XF498): 0.0773 µM (active)
GI50 (M19-MEL): 0.0764 µM (active)

C[C@]12CCC3[C@@H](CC[C@@H]4c5nonc5CC[C@]34C)C1CCC(=O)N2 (some centres not stated)
GI50 (HOP-18): > 100 µM (inactive)
GI50 (RXF 631): > 100 µM (inactive)
GI50 (DMS-273): > 100 µM (inactive)
GI50 (SNB-78): > 100 µM (inactive)
GI50 (XF498): > 100 µM (inactive)
GI50 (M19-MEL): > 100 µM (inactive)
